Experimental data taken from patent US10596145B2, “Heterocyclic flavone derivatives, compositions, and methods related thereto” (Emory University, priority 2012, dated 2020).
Entries after “also recorded” stand apart in the source; their conditions may differ. Blank lines part the entries; values can stand above or below the molecule they belong to.

Tests used:
Akt = assay: Downstream Akt activation in mouse brain (p-Akt immunoblotting, p-Akt 473 ELISA); format: in vivo
Protocol: PathScan Phospho-Akt1 (Ser473) Sandwich ELISA kit was purchased from Cell Signaling (Cat. #7160). 100 μl sample in sample diluent (supplied in the kit) was added to each well and incubated overnight at 4° C. After 4× wash with 200 ul wash buffer (supplied in the kit), 100 ul/well detection antibody was added and incubated for 1 hour at 37° C. After 4× wash, 100 μl of HRP-linked secondary antibody (supplied in the kit) was added and incubated for 30 minutes at 37° C. After a final wash, 100 μl of TMB substrate was added to each well and incubated for 10 minutes at 37° C. The reaction was stopped by adding 100 μl/well stop solution. Record the values of each well using microplate reader at 450 nm and 650 nm. The optical density was determined by the subtraction of the reading at 650 nm from the reading s at 450 nm.
(§1) Male C57BL/6 mice aged of two months were administrated orally with 4′-DMA-7,8-DHF derivatives at a single dose of 1 mg/kg for 4 h. The control mice were injected with saline. The mice were sacrificed and brains were homogenated and ultracentrafuged. The supernatant (40 μg) was employed for SDS-PAGE and immunoblotting analysis with indicated antibodies, respectively. Male C57BL/6 mice aged of two months were administrated orally with compound (i) or (m) at the dose of 5 mg/kg/day each and compound o or p at the dose of 2.5 mg/kg/day each for 21 days. BrdU (100 mg/kg) was i. p. injected two hours before the TrkB agonist treated animals were sacrificed and the hippocampal section lysates were analyzed by immunoblotting with p-TrkB and total TrkB antibodies, p-AKT ELISA.

HepG2 cells = assay: In vitro cytotoxicity assay with HepG2 cells; format: cell-based; conditions: micronucleus and comet assays
Protocol: HepG2 cells were treated with various concentrations of flavonoids for 24 h. The drug-treated cells were subjected to trypan blue exclusive assay. Data are presented as mean±SEM. (n=3, ***P<0.0001 vs vehicle).
In vitro and in vivo ADMET (ADME plus toxicity) of certain compounds were examined. […] Micronuclei formation is an important endpoint in genotoxicity study. […] Next, a Comet assay was performed with 100 μM drug-treated HepG2 cells. As a positive control, etoposide, a topoisomerase inhibitor, which causes DNA strand breaks was used.

TrkB [1] = target: T1, TrkB (Mus musculus, UniProt P15209); assay: TrkB phosphorylation in mouse brain after oral administration (immunoblotting, immunohistochemistry); format: in vivo
T1 construct: from tissue; host or cells: mouse brain (hippocampus, cortex), C57BL/6
T1 sequence (P15209 32-821): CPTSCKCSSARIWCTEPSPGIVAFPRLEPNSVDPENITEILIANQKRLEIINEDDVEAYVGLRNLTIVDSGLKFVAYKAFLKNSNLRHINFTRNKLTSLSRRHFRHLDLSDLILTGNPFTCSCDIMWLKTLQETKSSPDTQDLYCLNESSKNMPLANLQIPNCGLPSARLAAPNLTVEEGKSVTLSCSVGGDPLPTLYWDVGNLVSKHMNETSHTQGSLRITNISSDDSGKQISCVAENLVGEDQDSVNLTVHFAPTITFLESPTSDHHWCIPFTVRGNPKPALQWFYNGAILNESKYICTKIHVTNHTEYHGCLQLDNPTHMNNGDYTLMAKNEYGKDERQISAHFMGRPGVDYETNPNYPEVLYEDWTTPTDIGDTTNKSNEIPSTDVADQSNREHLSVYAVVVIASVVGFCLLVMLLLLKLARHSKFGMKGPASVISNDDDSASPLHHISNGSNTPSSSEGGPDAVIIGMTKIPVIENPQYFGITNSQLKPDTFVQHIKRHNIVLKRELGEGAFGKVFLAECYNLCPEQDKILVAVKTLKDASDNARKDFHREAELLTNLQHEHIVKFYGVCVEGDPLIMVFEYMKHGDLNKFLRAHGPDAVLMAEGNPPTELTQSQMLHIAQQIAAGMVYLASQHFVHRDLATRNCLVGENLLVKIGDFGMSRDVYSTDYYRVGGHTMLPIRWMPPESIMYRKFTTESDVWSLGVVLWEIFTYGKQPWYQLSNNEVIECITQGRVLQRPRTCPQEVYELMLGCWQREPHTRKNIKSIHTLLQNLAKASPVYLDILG
Protocol: One mg/kg of various indicated compounds were orally administrated into C57 BL/6J mice and TrkB phosphorylation and its downstream signaling cascades including Akt and MAPK in the hippocampus of mouse brain were analyzed by immunoblotting at 4 h. […] The downstream p-Akt and p-MAPK activity coupled to the TrkB activation patterns.
Time course assay with 4′-dimethylamino-7,8-imidazole flavone. One mg/kg of compound (i) and compound (m) were orally administrated into C57 BL/6J mice and TrkB phosphorylation and its downstream signaling cascades including Akt in mouse brain were analyzed by immunoblotting at various time points. TrkB activation by compound m peaked at 4 h, whereas the maximal TrkB activation by compound i in mouse brain occurred at 1-2 h. Arrows indicate the p-TrkB in mature glycosylated or unglycosylated forms (top panels). The downstream Akt activation pattern tightly correlated with the upstream TrkB activation.
as §1
Brain tissues were fixed in 4% paraformaldehyde overnight followed by paraffin embedding. Sections of 6 μm were cut. For immunohistochemical staining, brain sections were deparaffinized in xylene and rehydrated in graded alcohols. Endogenous peroxidase activity was blocked by 3% hydrogen peroxide for 5 min and all slides were boiled in 10 mM sodium citrate buffer (pH 6.0) for 10 min. Phosphorylated TrkB 816 and TrkB were detected using specific antibodies. Paraffin section were deparaffinized in xylene and rehydrated gradient ethanol solution. Samples were boiled in 10 mM sodium citrate buffer for 20 min for antigen retrieval purpose. Brain sections were incubated with anti-TrkB (BD Biosciences, San Jose, Calif.) 1:50, p-TrkB 1:300 dilution. Secondary antibody was applied using anti-rabbit-Alexa 594 (red), anti-mouse-fluorescein isothiocyanate (FITC) (green). DAPI (blue) was used for nuclear staining.

C57BL/6J mice [2] = assay: Locomotor activity assay; format: in vivo, mouse; conditions: 2.5 mg/kg oral, 3 weeks
Protocol: The above drug-treated mice were subjected locomotor activity at day 22. […] Data are presented as mean±SEM.
Locomotor activity was assessed using an automated system (San Diego Instruments, La Jolla, Calif., USA) with photobeams that recorded ambulations (consecutive beam breaks). Drug-treated mice were placed in the locomotor chambers, and their activity was recorded for 2 h with 30 min interval.

[3] = Reactive metabolic screening assay; format: in vitro ADME; conditions: liver microsomal lysates
Text: (§2) To explore these compounds' in vitro ADMET profiles, we conducted numerous in vitro assays.

[4] = Human liver microsomal stability assay; format: in vitro ADME; conditions: human liver microsomes, 1 h incubation
Text: as §2

C57BL/6J mice [5] = assay: Forced swim test; format: in vivo, mouse; conditions: 2.5 mg/kg oral, 21 days
Protocol: Male C57BL/6J mice (6 mice/group) were orally administrated by gavage with 5 mg/kg compound (m) or compound (i) and vehicle solvent saline for 21 days and subjected to a forced swim test (6 min, immobility recorded in the last 4 min). Data are presented as mean±SEM. (n=6, ***P<0.0001 vs vehicle, Student t-test).
Forced swim test. Male C57BL/6J mice (8 mice/group) were orally administrated by gavage with 2.5 mg/kg compound o or compound p and vehicle solvent saline for 21 days and subjected to a forced swim test (6 min, immobility recorded in the last 4 min). […] Data are presented as mean±SEM.
Adult male mice (2-3 months old) were randomly submitted to a forced swim test without a preswim. Test compounds were orally administrated by gavage for 21 days. The mice were allowed to adapt to the test room for 2 days. The mice were placed in a clear glass cylinder with a diameter of 16 cm, half-filled with clear water at 24° C.

CYP1A2 = target: T2, CYP1A2 (Homo sapiens, UniProt P05177); assay: CYP screen inhibition; format: in vitro ADME; conditions: at 3 μM
T2 sequence (P05177 1-516): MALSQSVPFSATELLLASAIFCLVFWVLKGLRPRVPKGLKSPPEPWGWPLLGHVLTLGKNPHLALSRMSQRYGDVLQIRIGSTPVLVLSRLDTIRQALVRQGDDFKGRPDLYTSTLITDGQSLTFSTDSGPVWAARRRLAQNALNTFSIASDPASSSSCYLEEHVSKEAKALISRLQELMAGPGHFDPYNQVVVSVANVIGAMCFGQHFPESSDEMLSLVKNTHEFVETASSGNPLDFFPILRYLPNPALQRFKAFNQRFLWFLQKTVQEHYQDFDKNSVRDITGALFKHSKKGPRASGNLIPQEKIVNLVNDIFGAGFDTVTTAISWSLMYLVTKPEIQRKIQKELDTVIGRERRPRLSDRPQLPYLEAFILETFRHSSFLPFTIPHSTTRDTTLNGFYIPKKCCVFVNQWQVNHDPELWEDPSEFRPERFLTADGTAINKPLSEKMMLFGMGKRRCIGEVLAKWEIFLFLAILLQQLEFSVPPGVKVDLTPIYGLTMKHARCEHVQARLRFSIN
Protocol: At 30 μM, the inhibition patterns contained similar trends. To test the possible cardiovascular toxicity, hERG inhibition triggered by compound o was examined.

TrkB [6] = target: T3, TrkB (Rattus norvegicus, UniProt Q63604); assay: TrkB activation in primary cortical neurons (immunoblotting); format: cell-based; conditions: 500 nM, 15 min
T3 construct: endogenous in cells; host or cells: primary cortical neurons from E17 rat embryos
T3 sequence (Q63604 32-821): as the sequence (P15209 32-821) above, with T3M, S9T, A10T, V32I, R63K, S84G, M153T, L185I, S394T, S770N counted along it
Protocol: Primary cortical cultures from E17 rat embryos were treated with 500 nM of various synthetic flavone derivatives for 15 min. The cell lysates (20 μg) were analyzed by the immunoblotting.
Rat primary neurons were treated with 500 nM various indicated compounds from 15 min. The neuronal lysates ([…]) were analyzed with various antibodies.
500 nM of different synthetic compounds were added to DIV 7 neurons for 15 min. The cell lysates were analyzed by immunoblotting with indicated p-Akt 473 antibodies.
Replacing the 3′-dimethylamino group or 4′-morpholino group was tested for TrkB agonistic activity. To compare the TrkB activation by these compounds, primary cortical cultures were prepared and treated them with 500 nM of various compounds for 15 min and collected the cell lysates. […] The p-Akt ELISA analysis results were similar to the TrkB activation pattern (FIG. 2B, lower panel).

[7] = In vivo pharmacokinetic studies in mice; set-up: species or system mouse; conditions: mice
Protocol: For compound a, the standard dosage of 1 mg/kg via i.v. injection and 5 mg/kg for P.O. route was employed. […] Presumably, the dosage is too low for the in vivo PK assay. Thus, the doses of the tested compound o were increased. […] Moreover, the bioavailability is around 2% for compound o at a 10 mg/kg dosage.
Twenty to thirty grams mice within the age of 6-8 weeks old were administrated with the indicated compounds i. v. or orally. At different time points (3, 10, 30, 60, 120, 240, 360 and 480 min), blood aliquots (300-400 μl) were collected in tubes coated with lithium heparin, mixed gently, then kept on ice and centrifuged at 2500×g for 15 min at 4° C., within 1 h of collection. The plasma was then harvested and kept frozen at −20° C. until further processing. For each time point, 3 mice/group were employed. The plasma samples were analyzed by HPLC.

[8] = In vivo metabolism studies of 7,8-DHF
Text: Among the modifications, glucuronidation and sulfation are thought to be responsible for the in vivo metabolism of the flavonoids. In addition, the O-methylated metabolites were detected in both the plasma and brain samples after oral administration. These modification pathways may explain the relatively short half-life of 7,8-DHF. Alteration of this labile group into the bioisosteric imidazole derivative escalates the PK profiles in compound o.

[9] = Metabolite investigation of the methylated metabolites of 7,8-DHF
Protocol: In order to increase the hydrophobicity, EU-B-related compounds were prepared by keeping the urea functional group. In metabolite investigation of the methylated metabolites of 7,8-DHF, it was discovered that that 7-methoxy-8-hydroxy metabolite is active. A methyl group was added on the urea group.

SMILES: O=c1cc(-c2ccc(N3CCCC3)cc2)oc2c1ccc1cc[nH]c12 [compound p, 2-(4-(pyrrolidin-1-yl)phenyl)pyrano[3,2-g]indol-4(9H)-one]
Akt activation (quantitative p-Akt ELISA) (Akt; 2.5 mg/kg/day oral, 3 weeks): notably activated Akt | cytotoxicity or genotoxicity (overall conclusion) (HepG2 cells): negligible cytotoxicity or genotoxicity | TrkB phosphorylation after chronic treatment (immunoblotting) (TrkB [1]; 2.5 mg/kg/day oral, 21 days): markedly activated TrkB receptor; also recorded: evidently elevated TrkB phosphorylation | TrkB phosphorylation in hippocampus (immunohistochemistry, anti-p-TrkB 816) (TrkB [1]; 2.5 mg/kg/day oral, chronic): elevated TrkB phosphorylation in hippocampus | locomotor activity (C57BL/6J mice [2]): neither compound o nor p altered the motion activity | reactive metabolite / adduct formation [3]: formed numerous adducts | remaining unchanged after incubation [4]: 1.2% | immobility in forced swim test (C57BL/6J mice [5]): but not compound p significantly decreased the immobility | CYP1A2 inhibition (CYP1A2): 37.4% | TrkB activation (p-TrkB immunoblotting) (TrkB [6]): higher activity than compound m

AUClast ([7]; 1 mg/kg i.v.): about 5930 min*ng/ml | in vivo half-life, t1/2 ([7]; 1 mg/kg i.v.): around 9 min | bioavailability ([7]; 5 mg/kg P.O.): not measurable
SMILES: CN(C)c1ccc(-c2cc(=O)c3ccc(O)c(O)c3o2)cc1 [compound a, 4′-DMA-7,8-DHF, reference compound]
downstream p-Akt and p-MAPK signalings (Akt; 1 mg/kg oral, at 4 h): strongly activated | TrkB activation in mouse brain (TrkB [1]; 1 mg/kg oral, hippocampus, at 4 h): activated the TrkB receptor; also recorded: strongest TrkB stimulatory effect

SMILES: O=c1cc(-c2ccccc2)oc2c(O)c(O)ccc12 [7,8-DHF, 7,8-dihdyroxyflavone]
in vivo metabolic modifications [8]: subjected to oxidation, glucuronidation, sulfation and methylation

SMILES: O=c1cc(-c2ccc(N3CCCC3)cc2)oc2c1ccc1nc[nH]c12 [compound n, 8-(4′-(pyrrolidino-)phenyl)chromeno[7,8-d]imidazol-6(1H)-one]
cytotoxicity or genotoxicity (overall conclusion) (HepG2 cells): negligible cytotoxicity or genotoxicity

SMILES: COc1ccc2c(=O)cc(-c3ccccc3)oc2c1O [7-methoxy-8-hydroxy metabolite]
activity of methylated metabolite [9]: is active

TrkB activation (p-TrkB immunoblotting) (TrkB [6]): comparable activity as compound a
SMILES: O=c1cc(-c2ccc(N3CCOCC3)cc2)oc2c(O)c(O)ccc12 [4′-morpholino-7,8-DHF]

TrkB activation (p-TrkB immunoblotting) (TrkB [6]): comparable activity as compound a
SMILES: CN(C)c1cccc(-c2cc(=O)c3ccc(O)c(O)c3o2)c1 [3′-dimethylamino-7,8-DHF]
